Test [1] relates to Phospho-YAP (SER127) in HaCaT cells. The test is described as follows: pYAP HTRF Assay (HaCaT Cells). To be noted: Homo sapiens, 2 hours. The class given is cell-based, human. An outline of the steps:
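Phospho-YAP (Ser127) was measured by HTRF (665 nm/620 nm ratio) in HaCaT cells. Cells were grown 48 hours at 37° C at 5500 cells/well, exposed to compound for 2 hours, and incubated with detection reagents for 20 hrs at room temperature.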

Test [2] has as its system YAP nuclear translocation in HaCaT cells. Briefly: YAP Translocation Assay (HaCaT Cells). To be noted: Homo sapiens, 24 hours. The class given is cell-based, human. An outline of the steps: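 HaCaT cells (20,000/well) in DMEM + 10% FBS were plated overnight at 37° C, then exposed to compound for 24 h at 37° C. Cells were fixed with PFA, permeabilized with 0.1% Triton/1.5% BSA and imaged by high-content imaging.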

Test [3] concerns Phospho-YAP (Ser127) in JHH-5 cells. Briefly: pYAP HTRF Assay (JHH-5 cells). The class given is cell-based. To be noted: 2 hours. How it is done:
Briefly, JHH-5 cells are suspended at 0.48×10^6 cells/ml in William's E medium without phenol-red (Thermo Fisher Scientific Gibco catalog number A1217601) supplemented with 10% (v/v) heat-inactivated fetal bovine serum (Thermo Fisher Scientific Gibco catalog number 16140071) and penicillin-streptomycin at 100 U/ml each (Thermo Fisher Scientific Gibco catalog number 15140122). Cells are dispensed into 384well clear bottom culture plates (50 ul/well, at 24000 cells per well, Greiner catalog number 781091), and incubated for 24 hours in a cell culture incubator at 37° C. Test compounds are transferred into culture plates containing JHH-5 cells using an Echo550 (Labcyte) acoustic dispenser (50 nl/well), followed by incubation for 2 hours at 37° C. Lysis buffer (part of CisBio kit catalog number 64YAPPEI) is added to the assay plates as a four-fold concentrate (corresponding to 16 ul/well) and incubated for 30 minutes at room temperature with agitation. Lysate is transferred from culture plates into white low-volume 384well assay plates (12 ul/well, Greiner catalog number 784075), followed by the addition of 3 ul/well of detection antibodies (part of CisBio kit catalog number 64YAPPEI: 1:40 dilution of each pYAP d2 antibody and pYAP cryptate antibody stocks). The plates are sealed and incubated overnight (18 hours) at room temperature protected from light. Plates are read on an EnVision plate reader (Perkin Elmer) at emission wavelengths of 665 nm and 620 nm. The HTRF signal ratio x per well is calculated as [x=Signal(665 nm)/Signal(620 nm)×10000] as specified in the manufacturer's protocol.
(In general: In TR-FRET formats the signal depends on donor and acceptor labels being close together.)

The target in another test is LATS1 (Homo sapiens (Human), UniProt O95835). Briefly: LATS1 biochemical assay (Table 1A, Compound Examples 1-290; method in the earlier part).
LATS1, sequence (O95835 whole entry, looked up): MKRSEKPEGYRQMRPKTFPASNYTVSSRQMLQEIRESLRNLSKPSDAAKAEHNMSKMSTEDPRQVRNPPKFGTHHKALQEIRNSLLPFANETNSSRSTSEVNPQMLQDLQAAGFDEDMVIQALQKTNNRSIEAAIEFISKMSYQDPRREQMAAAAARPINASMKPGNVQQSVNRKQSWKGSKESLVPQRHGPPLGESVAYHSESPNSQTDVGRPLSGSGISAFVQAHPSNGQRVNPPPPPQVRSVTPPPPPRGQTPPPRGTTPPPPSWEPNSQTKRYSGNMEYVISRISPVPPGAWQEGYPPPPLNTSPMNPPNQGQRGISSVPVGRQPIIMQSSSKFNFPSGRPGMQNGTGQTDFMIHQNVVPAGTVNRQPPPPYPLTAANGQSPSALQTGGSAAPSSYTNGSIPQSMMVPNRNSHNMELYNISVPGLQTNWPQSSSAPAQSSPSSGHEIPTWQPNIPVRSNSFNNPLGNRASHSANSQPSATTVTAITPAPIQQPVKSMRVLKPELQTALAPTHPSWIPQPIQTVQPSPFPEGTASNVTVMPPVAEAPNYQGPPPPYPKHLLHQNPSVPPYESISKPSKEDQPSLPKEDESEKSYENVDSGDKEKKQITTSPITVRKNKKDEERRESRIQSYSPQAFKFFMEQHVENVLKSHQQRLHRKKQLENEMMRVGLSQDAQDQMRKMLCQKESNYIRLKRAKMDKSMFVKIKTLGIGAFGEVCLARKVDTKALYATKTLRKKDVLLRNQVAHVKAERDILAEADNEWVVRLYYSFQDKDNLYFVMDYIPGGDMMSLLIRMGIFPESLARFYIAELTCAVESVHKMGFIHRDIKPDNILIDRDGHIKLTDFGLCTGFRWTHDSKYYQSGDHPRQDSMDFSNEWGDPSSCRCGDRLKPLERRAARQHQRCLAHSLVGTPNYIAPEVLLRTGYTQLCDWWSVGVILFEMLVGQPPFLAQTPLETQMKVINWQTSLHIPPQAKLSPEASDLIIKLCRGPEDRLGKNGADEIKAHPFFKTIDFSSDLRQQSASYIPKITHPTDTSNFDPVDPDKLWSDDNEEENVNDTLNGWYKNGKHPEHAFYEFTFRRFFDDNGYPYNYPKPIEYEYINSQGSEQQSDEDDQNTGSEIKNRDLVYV
LATS1, sequence (Q7L9L4 whole entry partner, looked up): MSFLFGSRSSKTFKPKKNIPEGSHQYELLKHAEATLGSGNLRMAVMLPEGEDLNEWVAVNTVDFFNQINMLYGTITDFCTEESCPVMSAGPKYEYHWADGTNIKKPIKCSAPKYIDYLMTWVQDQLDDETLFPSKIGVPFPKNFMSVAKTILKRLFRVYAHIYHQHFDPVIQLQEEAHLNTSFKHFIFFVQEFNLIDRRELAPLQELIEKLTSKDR

As a reminder, the IC50 is the concentration that gives 50% inhibition. A lower IC50 goes with greater potency. One may read the EC50 as the concentration giving half of the maximal effect. Read a low EC50 as an effect from little substance. Turning to `COCCC(C)(C)Nc1cc(-c2ccncc2)nc2cnccc12` [Example 254, N-(4-methoxy-2-methylbutan-2-yl)-2-(pyridin-4-yl)-1,7-naphthyridin-4-amine], the IC50 in test [1] was 2910 nM; in test [3] it was 1300 nM; against LATS1, 5 nM. This molecule yielded a 50% effective concentration (EC50) in test [2] of 4630 nM.
The like results for `CCC(C)Nc1nc(-c2ccncc2)nc2cnccc12` (stereo not shown) [Example 68, N-(butan-2-yl)-2-(pyridin-4-yl)pyrido[3,4-d]pyrimidin-4-amine] were, in that order, 1230 nM, 3500 nM, 2 nM and 3390 nM.
The like results for `CC(C)(O)CC(C)(C)Nc1cc(-c2ccncc2)nc2cnccc12` [Example 263, 2,4-dimethyl-4-{[2-(pyridin-4-yl)-1,7-naphthyridin-4-yl]amino}pentan-2-ol] were, in that order, 3220 nM, above 10000 nM, 7 nM and 5990 nM.
On the same counts, the results for `CCN(c1nc(-c2ccncc2)nc2cnccc12)C(C)C` [Example 3, N-ethyl-N-(propan-2-yl)-2-(pyridin-4-yl)pyrido[3,4-d]pyrimidin-4-amine] are 853 nM, 1000 nM, 1 nM and 641 nM.
Consider `CC(C)(C)Nc1nc(-c2ccnc(N)c2)nc2cnccc12` [Example 112, 4-[4-(tert-butylamino)pyrido[3,4-d]pyrimidin-2-yl]pyridin-2-amine], for which the values for the IC50 (in test [1]; in test [3]; on LATS1) were 1210 nM, 3200 nM and 2 nM, respectively. The molecule also had an EC50 in test [2] of 3520 nM.
In the case of `CC(C)(O)COCC(C)(C)Nc1cc(-c2ccncc2)nc2cnccc12` [Example 267, 2-methyl-1-(2-methyl-2-{[2-(pyridin-4-yl)-1,7-naphthyridin-4-yl]amino}propoxy)propan-2-ol], the IC50 in test [1] was determined as 7190 nM; in test [3] it was 5900 nM; on LATS1, 13 nM. In addition, in test [2], the EC50 was 9750 nM.
Consider `CC(C)(CCO)Nc1nc(-c2ccncc2)nc2cnccc12` [Example 61, 3-methyl-3-{[2-(pyridin-4-yl)pyrido[3,4-d]pyrimidin-4-yl]amino}butan-1-ol], for which the IC50 in test [1] was 141 nM; in test [3] it was 1400 nM; against LATS1 it was 1 nM. The same molecule came in with a 50% effective concentration (EC50) in test [2] of 517 nM.
Turning to `CCC(C)(C)Nc1cc(-c2ccncc2F)nc2cnccc12` [Example 281, 2-(3-fluoropyridin-4-yl)-N-(2-methylbutan-2-yl)-1,7-naphthyridin-4-amine], the concentration for half-maximal inhibition (IC50) was determined as 656 nM in test [1], 5900 nM in test [3] and 4 nM at LATS1. Also, the EC50 in test [2] came out at 2890 nM.
The like results for `CN(C)CCC(C)(C)Nc1cc(-c2ccncc2)nc2cnccc12` [Example 265, dimethyl(3-methyl-3-{[2-(pyridin-4-yl)-1,7-naphthyridin-4-yl]amino}butyl)amine] were, in that order, 22300 nM, above 10000 nM, 8 nM and above 20000 nM.
On the same counts, the results for `CC(C)(C)Nc1cc(-c2ccncc2F)nc2cnccc12` [Example 280, N-tert-butyl-2-(3-fluoropyridin-4-yl)-1,7-naphthyridin-4-amine] are 476 nM, 3800 nM, 3 nM and 2730 nM.
The like results for `CC(C)(C)Nc1cc(-c2ccnc3[nH]ccc23)nc2cnccc12` [Example 272, N-tert-butyl-2-{1H-pyrrolo[2,3-b]pyridin-4-yl}-1,7-naphthyridin-4-amine] were, in that order, 3510 nM, 8100 nM, 2 nM and 5970 nM.
On to `CC(Nc1nc(-c2ccncc2)nc2cnccc12)(C(=O)O)C(F)(F)F` (stereo not shown) [Example 84, 3,3,3-trifluoro-2-methyl-2-{[2-(pyridin-4-yl)pyrido[3,4-d]pyrimidin-4-yl]amino}propanoic acid], for which the IC50 in test [1] was 65200 nM; in test [3], above 10000 nM; on LATS1 it was 21 nM. The same molecule showed an EC50 in test [2] above 20000 nM.
On the same counts, the results for `CC(C)(Nc1nc(-c2ccncc2)nc2cnccc12)C1CCCCC1` [Example 15, N-(2-cyclohexylpropan-2-yl)-2-(pyridin-4-yl)pyrido[3,4-d]pyrimidin-4-amine] are 660 nM, 4100 nM, 4 nM and 3480 nM.
As to `COCC(C)(C)Nc1nc(-c2ccncc2)nc2cnccc12` [Example 7, N-(1-methoxy-2-methylpropan-2-yl)-2-(pyridin-4-yl)pyrido[3,4-d]pyrimidin-4-amine], the half-inhibitory concentration (IC50) in test [1] was 165 nM; in test [3], 1600 nM; against LATS1, 2 nM. In test [2], this molecule yielded an EC50 of 733 nM.
The like results for `FC(F)(F)C1(Nc2nc(-c3ccncc3)nc3cnccc23)CC1` [Example 64, 2-(pyridin-4-yl)-N-[1-(trifluoromethyl)cyclopropyl]pyrido[3,4-d]pyrimidin-4-amine] were, in that order, 63 nM, 2100 nM, 1 nM and 479 nM.
As for `CC(C)OCC(C)(C)Nc1cc(-c2ccncc2)nc2cnccc12` [Example 255, N-[2-methyl-1-(propan-2-yloxy)propan-2-yl]-2-(pyridin-4-yl)-1,7-naphthyridin-4-amine], the results for the half-inhibitory concentration (IC50) (in test [1]; in test [3]; at LATS1) were 3180 nM, 7100 nM and 8 nM, respectively. Besides, a half-maximal response in test [2] (EC50) required 5390 nM.
Consider `OCCNc1nc(-c2ccncc2)nc2cnccc12` [Example 85, 2-{[2-(pyridin-4-yl)pyrido[3,4-d]pyrimidin-4-yl]amino}ethan-1-ol], for which the half-maximal inhibitory concentration (IC50) is 31000 nM in test [1], above 10000 nM in test [3] and 25 nM against LATS1. Moreover, in test [2], the response was half-maximal at 9810 nM (EC50).
On the same counts, the results for `CCN(C)c1nc(-c2ccncc2)nc2cnccc12` [Example 10, N-ethyl-N-methyl-2-(pyridin-4-yl)pyrido[3,4-d]pyrimidin-4-amine] are 2960 nM, 8700 nM, 3 nM and 3550 nM.
On the same counts, the results for `CCC(C)(C)Nc1nc(-c2ccncc2Cl)nc2cnccc12` [Example 118, 2-(3-chloropyridin-4-yl)-N-(2-methylbutan-2-yl)pyrido[3,4-d]pyrimidin-4-amine] are 2050 nM, 4000 nM, 5 nM and 5010 nM.

The values are drawn from patent publication US11458138B2 (Novartis AG, priority 2017, dated 2022).
